These results are taken from article PMC6225212, “Synthesis and Pharmacological Evaluation of Novel Silodosin-Based Arylsulfonamide Derivatives as α1A/α1D-Adrenergic Receptor Antagonist with Potential Uroselective Profile” (Molecules : A Journal of Synthetic Chemistry and Natural …, 2018).

The target in one series is T1, α1D-ARs (Homo sapiens, UniProt P25100).
T1 sequence (P25100 1-572): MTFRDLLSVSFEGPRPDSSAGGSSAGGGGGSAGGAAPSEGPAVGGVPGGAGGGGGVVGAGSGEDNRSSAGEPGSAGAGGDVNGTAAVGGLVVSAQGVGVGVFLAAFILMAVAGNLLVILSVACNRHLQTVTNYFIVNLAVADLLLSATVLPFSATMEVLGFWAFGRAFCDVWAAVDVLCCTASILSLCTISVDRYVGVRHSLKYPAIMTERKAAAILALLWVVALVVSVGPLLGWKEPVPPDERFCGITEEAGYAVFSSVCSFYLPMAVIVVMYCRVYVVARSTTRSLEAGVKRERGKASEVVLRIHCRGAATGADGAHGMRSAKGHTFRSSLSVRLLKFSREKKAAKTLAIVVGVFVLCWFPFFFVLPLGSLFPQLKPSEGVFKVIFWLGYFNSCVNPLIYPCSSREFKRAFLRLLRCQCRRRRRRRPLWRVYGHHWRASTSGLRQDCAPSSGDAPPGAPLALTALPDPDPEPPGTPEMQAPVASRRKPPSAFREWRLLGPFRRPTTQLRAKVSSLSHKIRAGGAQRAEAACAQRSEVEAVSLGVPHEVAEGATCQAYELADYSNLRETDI
Put plainly: Intrinsic activity at α1D-ARs, aequorin calcium mobilization luminescence. It counts as cell-based. Also noted: key to α1D Profile: ANT—antagonist; AGO—agonist. Conditions: for IC50: antagonist mode, three independent experiments; for EC50: antagonist, as worded in abstract and text, read-out: EC50(α1D); for α1D Profile: functional profile. The protocol: The intrinsic activity at α1A-ARs of the selected compounds was assessed by fluorescence detection (Invitrogen, Thermo Fisher Scientific, Carlsbad, CA, USA) of β-lactamase reporter genes using a FRET-enabled substrate. The intrinsic activity at α1B-ARs and α1D-ARs was determined by luminescence detection (PerkinElmer, Zaventem, Belgium) of calcium mobilization using the recombinant-expressed jellyfish photoprotein (Aequorin).
Intrinsic activity assay to α1B- and α1D-ARs was performed according to the manufacturer of the ready-to-use cells with stable expression of the α1B-adrenoreceptors and α1D-adrenoreceptors, respectively (PerkinElmer, Zaventem, Belgium). For measurement, cells (frozen, ready to use) were thawed and resuspended in 10 mL of assay buffer containing 5 µM coelenterazine h. This cells suspension was put in a 10 mL Falcon tube, fixed onto a rotating heel, and incubated for overnight at rt in the dark (8 rpm; 45° angle). Cells were diluted with Assay Buffer to 5000 cells/20 µL. Agonistic ligands 2 × (50 µL/well), diluted in Assay Buffer, were prepared in ½ white polystyrene area plates, and the cell suspension was dispensed in 50 µL volume on the ligands using the injector. The light emitted was recorded for 20 s. Cells with antagonist were incubated for 15 min at room temperature. Thereafter, 50 µL of agonist (3 × EC80 final concentration) was injected into the mix of cells and antagonist and the light emitted was recorded for 20 s.
(In general: Calcium flux is commonly read through the fluorescence of an indicator in the cells.)

The next series deals with T2, α1A-ARs (Homo sapiens, UniProt P35348).
T2 sequence (P35348 1-466): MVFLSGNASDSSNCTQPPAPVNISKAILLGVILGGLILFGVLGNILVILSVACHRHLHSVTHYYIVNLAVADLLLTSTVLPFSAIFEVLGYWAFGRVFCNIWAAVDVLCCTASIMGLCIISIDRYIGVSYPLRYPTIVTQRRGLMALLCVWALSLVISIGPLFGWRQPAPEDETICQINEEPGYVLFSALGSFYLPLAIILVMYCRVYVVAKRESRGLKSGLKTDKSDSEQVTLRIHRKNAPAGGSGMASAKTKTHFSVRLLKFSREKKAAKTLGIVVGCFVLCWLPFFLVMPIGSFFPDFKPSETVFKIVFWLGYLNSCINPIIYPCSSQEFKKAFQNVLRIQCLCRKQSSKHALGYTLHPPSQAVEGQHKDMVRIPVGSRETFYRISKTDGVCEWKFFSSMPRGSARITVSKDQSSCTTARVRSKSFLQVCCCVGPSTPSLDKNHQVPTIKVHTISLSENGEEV
The series is described as follows: Intrinsic activity at α1A-ARs, β-lactamase reporter gene, FRET substrate. The series is classed as cell-based. Also noted: key to α1A Profile: ANT—antagonist; AGO—agonist. Conditions: for IC50: antagonist mode, three independent experiments; for α1A Profile: functional profile.

The next series has as its target T3, adrenergic β1-AR (Homo sapiens, UniProt P08588).
T3 construct: Eurofins (Celle-Lévescault, France)
The series is described as follows: Off-target panel at Eurofins Cerep, β1. It counts as binding. The protocol: (§1) Finally, the percentage of inhibition for selected compounds 9 and 10 for off-target histaminic H1R, muscarinic M1R, adrenergic β1-AR and potassium ion channel hERG were assessed at Eurofins (Celle-Lévescault, France) according to the procedure online at www.eurofins.com.

In a further series the target is T4, histaminic H1R (Homo sapiens, UniProt P35367).
T4 construct: Eurofins (Celle-Lévescault, France)
The series is described as follows: Off-target panel at Eurofins Cerep, H1. It counts as binding. Conditions: read-out: inhibition at histamine H1. The protocol: as §1

Another series concerns the target α2-ARs. Put plainly: Radioligand binding, displacement of [3H]-Clonidine from α2-ARs on rat cerebral cortex. Conditions: ± SEM, two independent experiments. The protocol: The pharmacological profile of the new compounds was assessed in radioligand-binding assays as the ability to displace [^3H]-Prazosin or [^3H]-Clonidine from α1- and α2-ARs, respectively, on rat cerebral cortex. The inhibition constants (Ki) were calculated from the Cheng-Prusoff equation [24].
The affinity of the obtained compounds was evaluated by radioligand-binding assays (the ability to displace [^3H]-Prazosin and [^3H]-Clonidine from α1- and α2-ARs, respectively) on rat cerebral cortex. The brains are homogenized in 20 volumes of an ice-cold 50 mM Tris-HCl buffer (pH 7.6) and is centrifuged (MPW Med. Instruments, Warsaw, Poland) at 20,000 g for 20 min (0–4 °C). The cell pellet is resuspended in the Tris-HCl buffer and centrifuged again. Radioligand-binding assays are performed in plates (MultiScreen/Millipore, Burlington, MA, USA). The final incubation mixture (final volume 300 µL) consisted of 240 µL of the membrane suspension, 30 µL of [^3H]-Prazosin (0.2 nM) or [^3H]-Clonidine (2 nM) solution, and 30 µL of the buffer containing seven to eight concentrations (10^−11 to 10^−4 M) of the tested compounds. For measuring the unspecific binding, phentolamine, 10 µM (in the case of [^3H]-Prazosin) and clonidine, and 10 µM (in the case of [^3H]-Clonidine), were applied. The incubation was terminated by rapid filtration over glass fiber filters (Whatman GF/C, Sigma-Aldrich) using a vacuum manifold (Millipore). The filters were then washed twice with the assay buffer and placed in scintillation vials with a liquid-scintillation cocktail. Radioactivity was measured in a WALLAC 1409 DSA liquid-scintillation counter (BioSurplus, San Diego, CA, USA). All the assays were made in duplicate.
A general note: Displacement assays read how much labelled ligand stays bound in the presence of the test substance.

The target in the next series is T5, hERG potassium channel (Homo sapiens, UniProt Q12809).
T5 construct: Eurofins (Celle-Lévescault, France)
The series is described as follows: Off-target panel at Eurofins Cerep, hERG. It counts as binding. Conditions: read-out: inhibition at hERG channels. The protocol: as §1
A general note: Block of hERG is tested as a sign of cardiac risk.

Molecules are shown by their SMILES.

T4 sequence (P35367 whole entry): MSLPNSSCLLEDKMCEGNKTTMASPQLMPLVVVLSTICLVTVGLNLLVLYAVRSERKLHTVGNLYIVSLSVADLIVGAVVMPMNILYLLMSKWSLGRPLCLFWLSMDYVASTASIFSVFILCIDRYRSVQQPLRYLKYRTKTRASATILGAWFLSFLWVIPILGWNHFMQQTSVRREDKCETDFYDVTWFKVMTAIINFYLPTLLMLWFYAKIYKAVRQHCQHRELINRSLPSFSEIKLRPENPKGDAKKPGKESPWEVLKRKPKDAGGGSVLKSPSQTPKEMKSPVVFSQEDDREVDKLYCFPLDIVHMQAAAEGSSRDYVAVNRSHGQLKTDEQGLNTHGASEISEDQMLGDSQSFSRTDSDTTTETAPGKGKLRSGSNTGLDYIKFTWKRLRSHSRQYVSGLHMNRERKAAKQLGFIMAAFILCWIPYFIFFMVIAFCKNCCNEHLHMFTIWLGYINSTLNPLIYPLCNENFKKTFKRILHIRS
T3 sequence (P08588 whole entry): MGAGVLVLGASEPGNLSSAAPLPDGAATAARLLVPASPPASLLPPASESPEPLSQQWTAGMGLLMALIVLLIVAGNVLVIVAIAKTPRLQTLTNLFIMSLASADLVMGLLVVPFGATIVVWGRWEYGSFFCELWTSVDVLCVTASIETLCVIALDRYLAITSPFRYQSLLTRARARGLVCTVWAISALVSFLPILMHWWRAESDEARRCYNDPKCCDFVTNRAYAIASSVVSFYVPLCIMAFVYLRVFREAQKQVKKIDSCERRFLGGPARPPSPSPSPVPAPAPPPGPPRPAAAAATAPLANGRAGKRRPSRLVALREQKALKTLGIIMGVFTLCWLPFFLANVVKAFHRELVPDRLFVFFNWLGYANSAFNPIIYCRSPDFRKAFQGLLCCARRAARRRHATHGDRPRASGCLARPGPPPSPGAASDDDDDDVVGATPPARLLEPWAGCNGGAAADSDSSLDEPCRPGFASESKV
T5 sequence (Q12809 whole entry): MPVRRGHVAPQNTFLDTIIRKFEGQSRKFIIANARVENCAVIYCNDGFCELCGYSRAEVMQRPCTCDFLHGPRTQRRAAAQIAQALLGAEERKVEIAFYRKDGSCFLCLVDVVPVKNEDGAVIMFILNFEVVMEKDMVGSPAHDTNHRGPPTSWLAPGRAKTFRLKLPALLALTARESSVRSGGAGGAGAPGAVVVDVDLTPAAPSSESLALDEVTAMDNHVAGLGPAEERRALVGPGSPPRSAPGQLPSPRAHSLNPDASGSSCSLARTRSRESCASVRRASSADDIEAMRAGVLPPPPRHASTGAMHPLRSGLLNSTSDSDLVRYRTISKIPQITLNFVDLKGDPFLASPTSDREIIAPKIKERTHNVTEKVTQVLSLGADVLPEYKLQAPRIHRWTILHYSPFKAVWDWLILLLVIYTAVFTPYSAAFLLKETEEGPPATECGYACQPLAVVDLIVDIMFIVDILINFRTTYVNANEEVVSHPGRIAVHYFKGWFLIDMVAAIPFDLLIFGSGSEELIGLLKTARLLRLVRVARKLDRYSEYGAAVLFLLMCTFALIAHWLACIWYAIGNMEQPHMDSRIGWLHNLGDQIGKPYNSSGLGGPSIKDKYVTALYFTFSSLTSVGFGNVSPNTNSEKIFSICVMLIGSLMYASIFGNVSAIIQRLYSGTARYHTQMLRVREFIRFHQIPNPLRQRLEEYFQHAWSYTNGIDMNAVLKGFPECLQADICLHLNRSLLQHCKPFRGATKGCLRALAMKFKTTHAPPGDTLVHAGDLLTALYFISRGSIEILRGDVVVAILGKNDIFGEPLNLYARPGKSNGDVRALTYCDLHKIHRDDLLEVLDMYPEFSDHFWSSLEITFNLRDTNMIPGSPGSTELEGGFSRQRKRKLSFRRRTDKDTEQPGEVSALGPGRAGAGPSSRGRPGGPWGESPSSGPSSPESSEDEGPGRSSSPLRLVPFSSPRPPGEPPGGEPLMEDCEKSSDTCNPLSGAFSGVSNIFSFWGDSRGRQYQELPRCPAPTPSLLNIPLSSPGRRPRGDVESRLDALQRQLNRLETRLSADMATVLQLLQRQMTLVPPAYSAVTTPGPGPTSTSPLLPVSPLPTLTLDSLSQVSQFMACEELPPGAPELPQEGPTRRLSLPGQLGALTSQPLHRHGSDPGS
Procedure for α1A-ARs: The intrinsic activity at α1A-ARs of the selected compounds was assessed by fluorescence detection (Invitrogen, Thermo Fisher Scientific, Carlsbad, CA, USA) of β-lactamase reporter genes using a FRET-enabled substrate. […] Intrinsic activity assay was performed according to the manufacturer of the assay kit (Invitrogen, Thermo Fisher Scientific corporation, Carlsbad, CA, USA). The cells were harvested and suspended in Assay Medium to a density of 312,500 cells/mL. Of the cell suspension, 32 µL per well was added to the Test Compound wells, the Unstimulated Control wells, and Stimulated Control wells and incubated per 16–24 h. […] Then, both the agonist and the antagonist plate were incubated in a humidified 37 °C/5% CO2 incubator for 5 h. After the incubation 8 µL of LiveBLAzer™-FRET B/G Substrate Mixture (CCF4-AM, Thermo Fisher Scientific corporation) was loaded cells in the absence of direct strong lighting, covered, and incubated at room temperature for 2 h.

For the molecule `O=S(=O)(NCC1CCN(CCOc2ccccc2OCC(F)(F)F)CC1)c1cccc(Cl)c1F` [Compound 9, 3-Chloro-2-fluoro-N-[(1-{2-[(2,2,2-trifluoroethoxy)phenoxy]ethyl}piperidin-4-yl)methyl]benzenesulfonamide], the IC50 on α1D-ARs stood at 1.1 nM; on α1A-ARs, 0.8 nM. For the same molecule, the EC50 came out at 1.1 nM on α1D-ARs and 0.8 nM at α1A-ARs (antagonist, in abstract). Moreover, on α1D-ARs, the “α1D Profile” value is reported as “ANT”. The “α1A Profile” value on α1A-ARs is “ANT”. Moreover, on α1A-ARs (α1B vs α1A functional potency), the “functional preference over the α1B subtype” value is 5 fold. Besides, the inhibition at 1 µM on adrenergic β1-AR, on histaminic H1R and at hERG potassium channel was below 50% each time. In addition, on α2-ARs, the Ki stood at 858 ± 69 nM.
In the case of `O=S(=O)(NCC1CCN(CCOc2ccccc2OCC(F)(F)F)CC1)c1cc(Cl)ccc1F` [Compound 10, 5-Chloro-2-fluoro-N-[(1-{2-[(2,2,2-trifluoroethoxy)phenoxy]ethyl}piperidin-4-yl)methyl]benzenesulfonamide], on α1D-ARs, the IC50 amounted to 2.7 nM, the EC50 was in the range of 1.1 to 2.7 nM and the “α1D Profile” value is reported as “ANT”. On α1A-ARs, the IC50 was 2.1 nM and the “α1A Profile” value is recorded as “ANT”. On adrenergic β1-AR, this molecule had an inhibition at 1 µM below 50%. Besides, the inhibition at 1 µM on histaminic H1R was below 50%. This molecule came in with a Ki on α2-ARs of 579 ± 20 nM. Besides, on hERG potassium channel, the inhibition at 1 µM is below 50%.
As for `CCOc1ccccc1OCCN[C@H](C)Cc1ccc(OC)c(S(N)(=O)=O)c1` [tamsulosin, reference compound], on α1D-ARs, the IC50 was 0.005 nM and the “α1D Profile” value is given as “ANT”. The “α1A Profile” value on α1A-ARs is given as “ANT”.

By IC50 is commonly meant the point on the concentration scale where inhibition reaches its midpoint. As a reminder, the EC50 is the concentration at which the effect is half-maximal. The term inhibition denotes the percentage by which the read-out fell short of the control. As a reminder, the Ki is the dissociation constant of the complex between target and ligand, obtained from inhibition or displacement.
